According to ChEMBL document CHEMBL1143192, “Anti-HIV-1 entry optimization of novel imidazopiperidine-tropane CCR5 antagonists” (Bioorg Med Chem Lett, 2008):

What was measured:
Format in all cases: ADME, organism-based
[1] = AUC in rat at 5 mg/kg, iv; design: dose 5 mg/kg, route intravenous; details: plasma
[2] = Half life in rat at 5 mg/kg, iv; design: dose 5 mg/kg, route intravenous; details: in vivo
[3] = Half life in rat at 30 mg/kg, po; design: dose 30 mg/kg, route oral; details: in vivo
[4] = Oral bioavailability in rat at 30 mg/kg; details: in vivo
[5] = Cmax in rat at 5 mg/kg, iv; design: dose 5 mg/kg, route intravenous; details: in vivo
[6] = Clearance in rat at 5 mg/kg, iv; design: dose 5 mg/kg, route intravenous; details: in vivo
[7] = AUC in rat at 30 mg/kg, po; design: dose 30 mg/kg, route oral; details: plasma
[8] = Cmax in rat at 30 mg/kg, po; design: dose 30 mg/kg, route oral; details: in vivo

AUC [1]: 2890 ng·h/mL | half-life [2]: 10.7 h | half-life [3]: 7.2 h | bioavailability [4]: 52% | Cmax [5]: 860 ng/mL | clearance [6]: 28.8 mL/min/kg | AUC [7]: 8990 ng·h/mL | Cmax [8]: 540 ng/mL
Structure (SMILES): CC(=O)N1CCc2c(nc(C)n2[C@@H]2C[C@H]3CC[C@@H](C2)N3CCCN(C(=O)Nc2ccc(C(F)(F)F)cc2)c2ccccc2)C1
